{"source": "patent EP3449923A1", "about": "“COMBINATION OF BEN[…]-CANCER AGENT AND A SECOND ANTI-CANCER AGENT” (MEI Pharma, Inc., priority 2007, dated 2008)", "tested_on": "HCT 116 (colon)", "assay": "Human xenograft model, tumor growth inhibition", "format": "in vivo, female athymic nude mice", "details": "A8 50 mg/kg po qd x 14 + vehicle (saline) iv D1,8,15", "description": "To assess in vivo antitumor activity in human xenograft models, female athymic nude mice, 12 to 14 weeks of age, were implanted subcutaneously in the flank with human cancer cells. When the tumors reached approximately 100 mm^3 in size, the mice were pair-matched into various treatment groups. For oral administration, compounds were dissolved in a mixture of 0.5% methylcellulose and 0.1% Tween 80 and administered by gavage to the tumor-bearing mice. For i.v.andi.p..administration, compounds were dissolved in 0.9% NaCI and for the i.v. administration, the compound was administered via the tail vein.\nPercent tumor growth inhibition (%TGI) was calculated as %TGI = (Cday a−Tday a)/(Cday a−Cday 1) × 100 [formula]\nWhere C is the median tumor volume of the control group, T is the median tumor volume of the treatment group, and day a is the day of assessment.\nIt is evident that the combination of a benzimidazole based anti-cancer agent such as Compound (A8) with the different anti-cancer agents enhanced the anti-tumor effect as compared to administering either of the drug on its own. Table 5: Examples of combination of Compound (A8) and anti-cancer agents in in vivo cancer models", "data": [{"molecule": "CCCCc1nc2cc(/C=C/C(=O)NO)ccc2n1CCN(CC)CC", "note": "[Compound A8, 3-[2-Butyl-1-(2-diethylamino-ethyl)-1H-benzimidazol-5-yl]-N-hydroxy-acrylamide]", "values": [{"measurement": "%TGI at Day 15", "value": 64, "unit": "%"}]}]}
